Where a name gives a salt, the structure may show the parent alone. Read-outs that look alike come from different tables or passages of the source.
How the values were obtained:
[1] = system: Herpes simplex type 1 virus (HFEM strain); experiment: Plaque reduction test in Vero cells infected with Herpes simplex type 1 virus; type: cell-based
Procedure: (§1) Vero (African Green Monkey Kidney) cells were grown to confluence in 6 well multidishes, each well being 3.5 cm in diameter. The cells were incubated with Herpes simplex type 1 virus (HFEM strain) and overlaid with 0.5 mL of 0.9% agarose (w/v) in maintenance medium containing the test compound at a range of concentrations from 3 µg/mL in half-log dilution steps. The virus infected cultures were then incubated at 37 °C for 6 days before fixing in 4% formaldehyde solution and staining with carbolfuchsin. The dishes were then examined to find what concentration of test compound causing a 50% reduction in the number of virus plaques formed (PDD50 value) and the minimum concentration of test compound which killed the cell monolayer, leaving a clear zone devoid of cells and virus plaques (MTD).

[2] = system: Vero (African Green Monkey Kidney) cells; experiment: Minimum concentration killing the Vero cell monolayer, read in the plaque reduction test; type: cell-based; details: minimum concentration which killed the cell monolayer; virus-infected Vero cells, 6 days at 37°C
Procedure: as §1

[3] = as above; type: cell-based, African Green Monkey; details: african green monkey; minimum concentration which killed the cell monolayer; virus-infected Vero cells, 6 days at 37°C; read-out: MTD
Procedure: as §1

[4] = concentration causing a 50% reduction in the number of virus plaques, 6 days at 37°C
[5] = Human alphaherpesvirus 1, 144 h, concentration causing a 50% reduction in the number of virus plaques, 6 days at 37°C, read-out: PDD50 (the source's name)
[6] = Human alphaherpesvirus 1, 144 h, same PDD50 values given in µM, 6 days at 37°C, read-out: PDD50 (the source's name)
[7] = Human alphaherpesvirus 1, Vero, 144 h, read-out: PDD50, concentration causing a 50% reduction in the number of virus plaques, 6 days at 37°C
[8] = Human alphaherpesvirus 1, Vero, 144 h, read-out: PDD50, same PDD50 values given in µM, 6 days at 37°C
[9] = same PDD50 values given in µM, 6 days at 37°C, read-out: PDD50 (the source's name)

| Compound | MTD [2] | PDD50 [1, 4] | MCC at 144 h [3] | IC50 [1, 7] | IC50 [1, 8] | further results |
| --- | --- | --- | --- | --- | --- | --- |
| NC(Cc1ccccc1)C(=O)OC[C@H]1O[C@@H](n2cc(/C=C/Br)c(=O)[nH]c2=O)C[C@@H]1OC(=O)C(N)Cc1ccccc1 (stereo partly drawn) [Example 7, E-5-(2-Bromovinyl)-3',5'-di-O-phenylalanyl-2'-deoxyuridine bis trifluoroacetate] | >100 µg/mL | – | – | – | – | PDD50 ([1]; concentration causing a 50% reduction in the number of virus plaques, 6 days at 37°C, bis trifluoroacetate): 0.14 µg/mL; IC50 ([1]; read-out: PDD50, same PDD50 values given in µM, 6 days at 37°C, bis trifluoroacetate): 0.16 µM |
| CC(C)C[C@H](N)C(=O)OC[C@H]1O[C@@H](n2cc(/C=C/Br)c(=O)[nH]c2=O)C[C@@H]1OC(=O)[C@@H](N)CC(C)C [Example 18, E-5-(2-bromovinyl)-3',5'-di-L-leucyl-2'-deoxyuridine bis bisulphate salt] | >100 µg/mL | 0.28 µg/mL | – | – | – | IC50 ([1]; read-out: PDD50, same PDD50 values given in µM, 6 days at 37°C): 0.37 µM |
| CC(C)(C)OC(=O)N1CCC[C@H]1C(=O)OC[C@H]1O[C@@H](n2cc(/C=C/Br)c(=O)[nH]c2=O)C[C@@H]1OC(=O)[C@@H]1CCCN1C(=O)OC(C)(C)C [Example 27, E-5-(2-Brcmovinyl)-3',5'-di-(t-butoxycarbonyl-L-prolyl)-2'-deoxyuridine] | – | – | 100 µg/mL | – | – | IC50 [1, 5]: 3.51 µg/mL; IC50 [1, 6]: 4.83 µM |
| CC(C)(C)OC(=O)N1CCC[C@H]1C(=O)OC[C@H]1O[C@@H](n2cc(/C=C/Br)c(=O)[nH]c2=O)C[C@@H]1O [Example 28] | – | – | 100 µg/mL | – | – | IC50 [1, 5]: 2.12 µg/mL; IC50 [1, 6]: 4 µM |
| CC(C)(C)OC(=O)N1CCC[C@H]1C(=O)O[C@H]1C[C@H](n2cc(/C=C/Br)c(=O)[nH]c2=O)O[C@@H]1CO [Example 29, E-5-(2-Bromovinyl)-3'-(t-butoxycarbonyl-L-prolyl)-2'-decxyuridine] | – | – | 100 µg/mL | – | – | IC50 [1, 5]: 0.64 µg/mL; IC50 [1, 6]: 1.21 µM |
| CC(C)C[C@@H](N)C(=O)OC[C@H]1O[C@@H](n2cc(/C=C/Br)c(=O)[nH]c2=O)C[C@@H]1OC(=O)[C@H](N)CC(C)C [Example 30, E-5-(2-Bromovinyl)-3',5'-di-D-leucyl-2'-deoxyuridine bis trifluoroacetate] | – | – | > 100 µg/mL | 0.16 µg/mL | 0.2 µM | – |
| N[C@H](Cc1ccccc1)C(=O)OC[C@H]1O[C@@H](n2cc(/C=C/Br)c(=O)[nH]c2=O)C[C@@H]1OC(=O)[C@H](N)Cc1ccccc1 [Example 31, E-5-(2-Bromovinyl)-3',5'-di-D-phenylalanyl--2'-deoxyuridine bis trifluoroacetate] | – | – | > 100 µg/mL | 0.55 µg/mL | 0.64 µM | – |
| CSCC[C@H](N)C(=O)OC[C@H]1O[C@@H](n2cc(/C=C/Br)c(=O)[nH]c2=O)C[C@@H]1OC(=O)[C@@H](N)CCSC [Example 32, E-5-(2-Bromovinyl)-3',5'-di-L-methionyl-2'-deoxyuridine bis trifluoroacetate] | – | – | > 100 µg/mL | 0.26 µg/mL | 0.32 µM | – |
| CC(C)[C@H](N)C(=O)OC[C@H]1O[C@@H](n2cc(/C=C/Br)c(=O)[nH]c2=O)C[C@@H]1OC(=O)[C@@H](N)C(C)C [Example 33, E-5-(2-Bromovinyl)-3',5'-di-L-valyl-2'-deoxyuridine bis trifluoroacetate] | – | – | > 100 µg/mL | 0.24 µg/mL | 0.32 µM | – |
| CC[C@H](C)[C@H](N)C(=O)OC[C@H]1O[C@@H](n2cc(/C=C/Br)c(=O)[nH]c2=O)C[C@@H]1OC(=O)[C@@H](N)[C@@H](C)CC [Example 34, E-5-(2-Bromovinyl)-3',5'-di-L-isoleucyl-2'-deoxyuridine bis trifluoroacetate] | – | – | > 100 µg/mL | 0.4 µg/mL | 0.51 µM | – |
| O=C(OC[C@H]1O[C@@H](n2cc(/C=C/Br)c(=O)[nH]c2=O)C[C@@H]1OC(=O)[C@@H]1CCCN1)[C@@H]1CCCN1 [Example 35, E-5-(2-Bromovinyl)-3',5'-di-L-prolyl-2'-deoxyuridine bis trifluoroacetate] | – | – | > 100 µg/mL | 0.22 µg/mL | 0.29 µM | – |
| O=C(OC[C@H]1O[C@@H](n2cc(/C=C/Br)c(=O)[nH]c2=O)C[C@@H]1O)[C@@H]1CCCN1 [Example 36, E-5-(2-Bromovinyl)-5'-L-prolyl-2'-deoxyuridine trifluoroacetate] | – | – | > 100 µg/mL | 0.55 µg/mL | 1.01 µM | – |
| O=C(O[C@H]1C[C@H](n2cc(/C=C/Br)c(=O)[nH]c2=O)O[C@@H]1CO)[C@@H]1CCCN1 [Example 37, E-5-(2-Bromovinyl)-3'-L-prolyl-2'-deoxyuridine trifluoroacetate] | – | – | > 100 µg/mL | 0.68 µg/mL | 1.25 µM | – |
| NC(=O)CC[C@H](N)C(=O)OC[C@H]1O[C@@H](n2cc(/C=C/Br)c(=O)[nH]c2=O)C[C@@H]1OC(=O)[C@@H](N)CCC(N)=O [Example 39, bis trifluoroacetate] | – | – | > 100 µg/mL | 0.42 µg/mL | 0.51 µM | – |
| E-5-(2-Bromovinyl)-3',5'-di-L-alanyl-2'-deoxyuridine bis trifluoroacetate [Example 38] | >100 µg/mL | 0.26 µg/mL | – | – | – | IC50 [1, 9]: 0.37 µM |
| E-5-(2-Bromovinyl)-3',5'-di-L-leucyl-2'-deoxyuridine bis trihydrogenpyrophosphate [Example 41] | >100 µg/mL | 0.55 µg/mL | – | – | – | IC50 [1, 9]: 0.6 µM |
| E-5-(2-Bromovinyl)-3',5'-di-glycyl-2'-deoxyuridine bis bisulphate [Example 17] | >100 µg/mL | 0.49 µg/mL | – | – | – | IC50 [1, 9]: 0.76 µM |
| E-5-(2-Bromovinyl)-5'-O-phenylalanyl-2'-deoxyuridine trifluoroacetate [Example 9] | >100 µg/mL | 0.19 µg/mL | – | – | – | IC50 [1, 9]: 0.32 µM |
| E-5-(2-bromovinyl)-3',5'-di-L-lysyl-2'-deoxyuridine tetrakis trifluoroacetate dihydrate [Example 40] | >100 µg/mL | 0.19 µg/mL | – | – | – | IC50 [1, 9]: 0.18 µM |
